PubChem BioAssay (NCI)
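Growth conditions: 96-well plates. Treatment: test compound, 48 hours, 5 concentrations. Analysis: linear interpolation between bracketing concentrations; unreached endpoints set to highest concentration. The concentration for full growth arrest is given as TGI.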

Columns and labels:
Experiment in all cases: DTP human tumour cell line panel, 48 h
M14 melanoma = test system: M14 melanoma
A498 renal = test system: A498 renal
COLO 205 colon = test system: COLO 205 colon
K-562 leukemia = test system: K-562 leukemia
DLD-1 colon = test system: DLD-1 colon
A549 NSCLC = test system: A549 NSCLC
NCI-H460 lung = test system: NCI-H460 lung
SNB-19 CNS = test system: SNB-19 CNS
MALME-3M melanoma = test system: MALME-3M melanoma
SR leukemia = test system: SR leukemia
OVCAR-4 ovarian = test system: OVCAR-4 ovarian
SF-539 CNS = test system: SF-539 CNS
UACC-257 melanoma = test system: UACC-257 melanoma
HCT-15 colon = test system: HCT-15 colon
SF-268 CNS = test system: SF-268 CNS
LXFL 529 NSCLC = test system: LXFL 529 NSCLC
SF-295 CNS = test system: SF-295 CNS
IGROV1 ovarian = test system: IGROV1 ovarian
SK-MEL-2 melanoma = test system: SK-MEL-2 melanoma
HOP-62 NSCLC = test system: HOP-62 NSCLC
RXF 393 renal = test system: RXF 393 renal
OVCAR-8 ovarian = test system: OVCAR-8 ovarian
UACC-62 melanoma = test system: UACC-62 melanoma
SK-MEL-28 melanoma = test system: SK-MEL-28 melanoma
HCT-116 colon = test system: HCT-116 colon
ACHN renal = test system: ACHN renal
OVCAR-3 ovarian = test system: OVCAR-3 ovarian
RXF-631 renal = test system: RXF-631 renal
DMS 273 small cell lung = test system: DMS 273 small cell lung
CCRF-CEM leukemia = test system: CCRF-CEM leukemia
NCI-H522 lung = test system: NCI-H522 lung
SNB-75 CNS = test system: SNB-75 CNS
EKVX NSCLC = test system: EKVX NSCLC
MOLT-4 leukemia = test system: MOLT-4 leukemia
SK-MEL-5 melanoma = test system: SK-MEL-5 melanoma
SNB-78 CNS = test system: SNB-78 CNS
SN12C renal = test system: SN12C renal
SK-OV-3 ovarian = test system: SK-OV-3 ovarian
RPMI-8226 leukemia = test system: RPMI-8226 leukemia
OVCAR-5 ovarian = test system: OVCAR-5 ovarian
XF 498 CNS = test system: XF 498 CNS
NCI-H226 lung = test system: NCI-H226 lung
SW-620 colon = test system: SW-620 colon
DMS 114 small cell lung = test system: DMS 114 small cell lung
HT29 colon = test system: HT29 colon
786-0 renal = test system: 786-0 renal
HL-60(TB) leukemia = test system: HL-60(TB) leukemia
LOX IMVI melanoma = test system: LOX IMVI melanoma
UO-31 renal = test system: UO-31 renal
U251 CNS = test system: U251 CNS
HCC-2998 colon = test system: HCC-2998 colon
KM12 colon = test system: KM12 colon
NCI-H23 lung = test system: NCI-H23 lung
M19-MEL melanoma = test system: M19-MEL melanoma
HOP-92 NSCLC = test system: HOP-92 NSCLC
TK-10 renal = test system: TK-10 renal
CAKI-1 renal = test system: CAKI-1 renal
HOP-18 NSCLC = test system: HOP-18 NSCLC
KM20L2 colon = test system: KM20L2 colon
MDA-MB-231 breast = test system: MDA-MB-231 breast
HS 578T breast = test system: HS 578T breast
MDA-MB-435 = test system: MDA-MB-435
T-47D breast = test system: T-47D breast
PC-3 prostate = test system: PC-3 prostate
NCI/ADR-RES ovarian = test system: NCI/ADR-RES ovarian
MCF7 breast = test system: MCF7 breast
BT-549 breast = test system: BT-549 breast
MDA-N = test system: MDA-N
DU-145 prostate = test system: DU-145 prostate

Measured: TGI

COc1ccc(O)c2c(=O)ccccc12
60 µM: TK-10 renal
91.7 µM: NCI-H522 lung
not listed: CAKI-1 renal | HOP-18 NSCLC | KM20L2 colon | MDA-MB-231 breast | HS 578T breast | MDA-MB-435 | T-47D breast | PC-3 prostate | NCI/ADR-RES ovarian | MCF7 breast | BT-549 breast | MDA-N | DU-145 prostate
> 100 µM: all other assays above

C#CCN(Cc1ccc2nc(-c3ccccc3)c(Cl)nc2c1)c1cc(OC)c(OC)c(OC)c1
40.4 µM: LOX IMVI melanoma
34.2 µM: SW-620 colon
43.5 µM: RPMI-8226 leukemia
51.8 µM: DMS 114 small cell lung
not listed: SR leukemia | XF 498 CNS | MDA-MB-231 breast | HS 578T breast | MDA-MB-435 | T-47D breast | PC-3 prostate | NCI/ADR-RES ovarian | MCF7 breast | BT-549 breast | MDA-N | DU-145 prostate
> 100 µM: all other assays above

O=c1oc2ccccc2c(O)c1C(C/C(CCN1CCCC1)=N/O)c1ccccc1 (stereo not drawn)
> 31.6 µM: K-562 leukemia | HL-60(TB) leukemia
not listed: DMS 273 small cell lung | CCRF-CEM leukemia | SNB-78 CNS | HOP-18 NSCLC
> 100 µM: all other assays above
